{"source": "patent US10343988B1", "about": "“Hydroxytyrosol thiodipropionic acid ester with antioxidant activity and a method of preparing the same” (SHAANXI UNIVERSITY OF SCIENCE AND TECHNOLOGY, priority 2019, dated 2019)", "test": "DPPH radical scavenging activity assay", "assay_type": "biochemical", "conditions": "for Scavenging Activity (%) (n = 3): DPPH in methanol, 30 min, 517 nm", "source_text": "DPPH Radical Scavenging Activity Assay\n2,2-Diphenyl-1-picryl hydrazyl (DPPH) is an organic compound composed of a stable organic radical. In the DPPH molecule, due to the presence of multiple electron-withdrawing —NO2 and large it bonds of the benzene ring, nitrogen free radical is stabilized. Its methanol solution is purple and has a maximum absorption peak at 517 nm. After the addition of an antioxidant, DPPH captures an electron to be paired with the free electron, and the purple fades and turns into a yellow substance. The absorption at 517 nm disappears, and the degree of fading is quantitatively related to the number of electrons it captures. Based on this principle, a spectrophotometer is used to detect the change of the absorbance of the DPPH radical and the sample solution, and the ability of the sample to provide hydrogen atoms and scavenge free radicals can be measured.\n(a) Preparation of DPPH solution:measuring exact amount of 2,2-diphenyl-1-picryl hydrazyl (DPPH) and dissolving in methanol to prepare a 0.2×10^−4 mol/L DPPH solution, stored at 0° C. in dark.\n(b) Preparation of sample solutions: Vc (vitamin C, positive control), hydroxytyrosol thiodipropionic acid ester, hydroxytyrosol (control), thiodipropionic acid (control), and a mixture of hydroxytyrosol and thiodipropionic acid (control) were dissolved in methanol and diluted in a concentration gradient.\nMeasuring the scavenging activity of the sample solutions: 2 mL of the sample solutions (table 1) at each concentration gradient was taken, 2 mL 0.2×10^−4 mol/L DPPH solution was added, the mixture was mixed and reacted at room temperature in dark for 30 minutes, and methanol was then added to adjust final volume. The absorbance Ai was measured at 517 nm. 2 mL control solution and 2 mL methanol were mixed, and the absorbance Aj was measured. 2 mL DPPH solution and 2 mL methanol were mixed, and the absorbance A0 was measured.\n(d) The scavenging activity of the sample solution and control solutions is calculated according to the following calculation formula and shown in Table 3 and FIG. 3. Scavenging activity (%)=100×[1−(Ai−Aj)/A0]", "key": {"[1]": {"conditions": "sample concentration 1.648 μg/mL, room temperature, dark"}, "[2]": {"conditions": "sample concentration 8.242 μg/mL"}, "[3]": {"conditions": "sample concentration 16.484 μg/mL"}, "[4]": {"conditions": "sample concentration 37.969 μg/mL"}, "[5]": {"conditions": "sample concentration 65.938 μg/mL"}, "[6]": {"conditions": "sample concentration 131.875 μg/mL"}, "[7]": {"conditions": "sample concentration 263.750 μg/mL"}, "[8]": {"conditions": "sample concentration 527.500 μg/mL"}, "[9]": {"conditions": "sample concentration 1055.000 μg/mL"}}, "note": "“Also recorded” adds a separate entry of the source.", "data": [{"molecule": "O=C(CCSCCC(=O)OCCc1ccc(O)c(O)c1)OCCc1ccc(O)c(O)c1", "note": "[A, bis(3,4-dihydroxyphenethyl) 3,3′-thiodipropanoate]", "values": [{"measurement": "DPPH radical scavenging activity (result in words, comparison with controls)", "setting": "1.648 to 1055 μg/mL, compared at same concentration", "result": "obvious DPPH radical scavenging activity in a concentration dependent manner; also recorded: better DPPH radical scavenging activity than hydroxytyrosol (B), thiodipropionic acid (C), and a 2:1 physical mixture of hydroxytyrosol and thiodipropionic acid (D) at same concentration"}, {"measurement": "Scavenging Activity (%) (n = 3)", "setting": "[1]", "result": 32.44, "unit": "%"}, {"measurement": "Scavenging Activity (%) (n = 3)", "setting": "[2]", "result": 42.37, "unit": "%"}, {"measurement": "Scavenging Activity (%) (n = 3)", "setting": "[3]", "result": 52.29, "unit": "%"}, {"measurement": "Scavenging Activity (%) (n = 3)", "setting": "[4]", "result": 66.79, "unit": "%"}, {"measurement": "Scavenging Activity (%) (n = 3)", "setting": "[5]", "result": 79.39, "unit": "%"}, {"measurement": "Scavenging Activity (%) (n = 3)", "setting": "[6]", "result": 90.01, "unit": "%"}, {"measurement": "Scavenging Activity (%) (n = 3)", "setting": "[7]", "result": 96.95, "unit": "%"}, {"measurement": "Scavenging Activity (%) (n = 3)", "setting": "[8]", "result": 97.71, "unit": "%"}, {"measurement": "Scavenging Activity (%) (n = 3)", "setting": "[9]", "result": 98.09, "unit": "%"}]}, {"molecule": "O=C(O)CCSCCC(=O)O", "note": "[C, 3,3′-thiodipropionic acid]", "values": [{"measurement": "Scavenging Activity (%) (n = 3)", "setting": "[1]", "result": 3.24, "unit": "%"}, {"measurement": "Scavenging Activity (%) (n = 3)", "setting": "[2]", "result": 4.86, "unit": "%"}, {"measurement": "Scavenging Activity (%) (n = 3)", "setting": "[3]", "result": 9.72, "unit": "%"}, {"measurement": "Scavenging Activity (%) (n = 3)", "setting": "[4]", "result": 16.19, "unit": "%"}, {"measurement": "Scavenging Activity (%) (n = 3)", "setting": "[5]", "result": 20.65, "unit": "%"}, {"measurement": "Scavenging Activity (%) (n = 3)", "setting": "[6]", "result": 27.13, "unit": "%"}, {"measurement": "Scavenging Activity (%) (n = 3)", "setting": "[7]", "result": 31.58, "unit": "%"}, {"measurement": "Scavenging Activity (%) (n = 3)", "setting": "[8]", "result": 32.39, "unit": "%"}, {"measurement": "Scavenging Activity (%) (n = 3)", "setting": "[9]", "result": 38.06, "unit": "%"}]}, {"molecule": "O=C1O[C@H]([C@@H](O)CO)C(O)=C1O", "note": "[Vc, Vitamin C]", "values": [{"measurement": "Scavenging Activity (%) (n = 3)", "setting": "[1]", "result": 34.01, "unit": "%"}, {"measurement": "Scavenging Activity (%) (n = 3)", "setting": "[2]", "result": 37.06, "unit": "%"}, {"measurement": "Scavenging Activity (%) (n = 3)", "setting": "[3]", "result": 44.67, "unit": "%"}, {"measurement": "Scavenging Activity (%) (n = 3)", "setting": "[4]", "result": 67.51, "unit": "%"}, {"measurement": "Scavenging Activity (%) (n = 3)", "setting": "[5]", "result": 95.43, "unit": "%"}, {"measurement": "Scavenging Activity (%) (n = 3)", "setting": "[6]", "result": 97.46, "unit": "%"}, {"measurement": "Scavenging Activity (%) (n = 3)", "setting": "[7]", "result": 98.98, "unit": "%"}, {"measurement": "Scavenging Activity (%) (n = 3)", "setting": "[8]", "result": 99.49, "unit": "%"}, {"measurement": "Scavenging Activity (%) (n = 3)", "setting": "[9]", "result": 99.49, "unit": "%"}]}, {"molecule": "OCCc1ccc(O)c(O)c1", "note": "[B, 4-(2-hydroxyethyl)-1,2-benzenediol]", "values": [{"measurement": "Scavenging Activity (%) (n = 3)", "setting": "[1]", "result": 8.44, "unit": "%"}, {"measurement": "Scavenging Activity (%) (n = 3)", "setting": "[2]", "result": 10.97, "unit": "%"}, {"measurement": "Scavenging Activity (%) (n = 3)", "setting": "[3]", "result": 22.78, "unit": "%"}, {"measurement": "Scavenging Activity (%) (n = 3)", "setting": "[4]", "result": 29.96, "unit": "%"}, {"measurement": "Scavenging Activity (%) (n = 3)", "setting": "[5]", "result": 43.04, "unit": "%"}, {"measurement": "Scavenging Activity (%) (n = 3)", "setting": "[6]", "result": 62.87, "unit": "%"}, {"measurement": "Scavenging Activity (%) (n = 3)", "setting": "[7]", "result": 73.00, "unit": "%"}, {"measurement": "Scavenging Activity (%) (n = 3)", "setting": "[8]", "result": 75.11, "unit": "%"}, {"measurement": "Scavenging Activity (%) (n = 3)", "setting": "[9]", "result": 75.95, "unit": "%"}]}]}
